The target of one experiment is T1, FLT3-ITD (Homo sapiens, UniProt P36888).
T1 sequence (P36888 1-993): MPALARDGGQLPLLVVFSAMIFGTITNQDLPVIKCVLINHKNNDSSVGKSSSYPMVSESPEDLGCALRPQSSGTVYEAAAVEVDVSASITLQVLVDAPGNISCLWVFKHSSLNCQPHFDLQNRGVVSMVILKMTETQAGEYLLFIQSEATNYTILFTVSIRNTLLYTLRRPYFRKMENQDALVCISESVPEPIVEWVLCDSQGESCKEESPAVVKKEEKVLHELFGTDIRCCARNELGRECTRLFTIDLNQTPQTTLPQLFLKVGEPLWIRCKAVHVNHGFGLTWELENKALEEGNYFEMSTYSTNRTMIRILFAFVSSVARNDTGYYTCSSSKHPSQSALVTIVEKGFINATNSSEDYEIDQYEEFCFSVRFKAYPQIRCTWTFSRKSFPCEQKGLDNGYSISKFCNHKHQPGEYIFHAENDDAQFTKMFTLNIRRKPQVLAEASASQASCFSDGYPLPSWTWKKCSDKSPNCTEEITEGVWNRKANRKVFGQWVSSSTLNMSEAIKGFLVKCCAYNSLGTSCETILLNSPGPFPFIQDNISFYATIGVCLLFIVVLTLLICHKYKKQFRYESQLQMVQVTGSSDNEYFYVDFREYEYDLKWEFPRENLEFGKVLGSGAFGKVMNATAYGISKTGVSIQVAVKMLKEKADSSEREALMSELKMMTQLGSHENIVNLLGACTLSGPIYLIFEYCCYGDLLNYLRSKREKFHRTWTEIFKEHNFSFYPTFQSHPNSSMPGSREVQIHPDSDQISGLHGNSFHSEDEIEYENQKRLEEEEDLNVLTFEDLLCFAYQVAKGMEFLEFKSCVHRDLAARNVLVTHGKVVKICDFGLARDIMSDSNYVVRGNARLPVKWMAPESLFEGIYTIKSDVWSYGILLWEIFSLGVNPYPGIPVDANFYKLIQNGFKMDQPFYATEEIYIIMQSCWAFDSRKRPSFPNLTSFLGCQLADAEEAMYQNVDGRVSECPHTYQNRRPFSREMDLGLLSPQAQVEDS
The experiment is described as follows: FLT3-ITD recombinant enzyme kinase assay (AlphaScreen). In kind it is biochemical. The settings on record: 8 pt; read-out: FLT3_ITD 8 pt: IC50. The method, then:
(§1) In order to determine the effect of compounds on FLT3 catalytic activity, kinase assays using recombinant enzymes and AlphaScreen® technology have been established. The catalytic activity of c-kit activity was also measured to determine selectivity of the compounds. When the kinases are catalytically active, they phosphorylate a biotinylated peptide substrate on tyrosine residues. Using AlphaScreen® technology, the ability of the compounds to affect the catalytic activity of the kinases can be measured quantitatively. The peptide substrate is immobilized by the AlphaScreen® Streptavidin Donor beads and, upon phosphorylation by a tyrosine kinase, can bind to AlphaScreen® Anti-Phosphotyrosine (PY20) Acceptor beads. Upon excitation of these beads with laser light at 680 nm, singlet oxygen is produced. This singlet oxygen is rapidly quenched, unless the AlphaScreen® Anti-Phosphotyrosine (PY20) Acceptor beads are in close proximity, in which case a proximity signal can be measured at 580 nm. In the presence of catalytic activity, there is a very strong proximity signal. Selective kinase inhibitors affect a decrease in this proximity signal through a decrease in tyrosine phosphorylation of the peptide substrate.
(§2) The assay was performed as summarized below.
(§3) Poly (Glu4-Tyr) Peptide, biotin conjugate [Biotin-GG(EEEEY)10EE] (SEQ ID NO: 4)
(§4) Final concentration=30 nM
(§5) Adenosine Triphosphate (ATP)
(§6) Final concentration for IC50 determination=10 μM (FLT3-D835Y or FLT3-ITD) or 100 μM (c-KIT)
(§7) AlphaScreen® Phosphotyrosine (PY20) Assay Kit
(§8) Final concentration=10 μg/mL
(§9) Dilute compounds in DMSO to 20× final concentration.
(§10) Add 1 μL of compound to each well of 384 well reaction plate (Perkin Elmer #6005359).
(§11) Mix enzyme and Poly (Glu4-Tyr) Peptide substrate at 1.33× final concentration in assay buffer.
(§12) Mix ATP at 5× final concentration in assay buffer.
(§13) Add 15 μL enzyme/substrate mixture to the reaction plate.
(§14) Add 4 μL of ATP to the reaction plate.
(§15) Mix Streptavidin Donor beads at 6× final concentration in Stop/Detection buffer.
(§16) Add 5 μL Streptavidin Donor beads to the reaction plate. Centrifuge 1 minute, shake to mix, and incubate at room temperature for 20 minutes.
(§17) Mix Anti-Phosphotyrosine (PY20) Acceptor beads at 6× final concentration in Stop/Detection buffer.
(§18) Add 5 μL Anti-Phosphotyrosine (PY20) beads to the reaction plate.
(§19) Centrifuge 1 minute, shake to mix, and incubate at room temperature for 60 minutes.
(§20) Read plate on Wallac EnVision™ 2103 Multilabel Reader.
In general terms: In Alpha technology, singlet oxygen from a donor bead excites a nearby acceptor bead.

The target in a further experiment is T2, FLT3-D835Y (Homo sapiens, UniProt P36888, D835Y).
T2 construct: purchased Invitrogen PV3967
T2 sequence (P36888 27-993 D835Y): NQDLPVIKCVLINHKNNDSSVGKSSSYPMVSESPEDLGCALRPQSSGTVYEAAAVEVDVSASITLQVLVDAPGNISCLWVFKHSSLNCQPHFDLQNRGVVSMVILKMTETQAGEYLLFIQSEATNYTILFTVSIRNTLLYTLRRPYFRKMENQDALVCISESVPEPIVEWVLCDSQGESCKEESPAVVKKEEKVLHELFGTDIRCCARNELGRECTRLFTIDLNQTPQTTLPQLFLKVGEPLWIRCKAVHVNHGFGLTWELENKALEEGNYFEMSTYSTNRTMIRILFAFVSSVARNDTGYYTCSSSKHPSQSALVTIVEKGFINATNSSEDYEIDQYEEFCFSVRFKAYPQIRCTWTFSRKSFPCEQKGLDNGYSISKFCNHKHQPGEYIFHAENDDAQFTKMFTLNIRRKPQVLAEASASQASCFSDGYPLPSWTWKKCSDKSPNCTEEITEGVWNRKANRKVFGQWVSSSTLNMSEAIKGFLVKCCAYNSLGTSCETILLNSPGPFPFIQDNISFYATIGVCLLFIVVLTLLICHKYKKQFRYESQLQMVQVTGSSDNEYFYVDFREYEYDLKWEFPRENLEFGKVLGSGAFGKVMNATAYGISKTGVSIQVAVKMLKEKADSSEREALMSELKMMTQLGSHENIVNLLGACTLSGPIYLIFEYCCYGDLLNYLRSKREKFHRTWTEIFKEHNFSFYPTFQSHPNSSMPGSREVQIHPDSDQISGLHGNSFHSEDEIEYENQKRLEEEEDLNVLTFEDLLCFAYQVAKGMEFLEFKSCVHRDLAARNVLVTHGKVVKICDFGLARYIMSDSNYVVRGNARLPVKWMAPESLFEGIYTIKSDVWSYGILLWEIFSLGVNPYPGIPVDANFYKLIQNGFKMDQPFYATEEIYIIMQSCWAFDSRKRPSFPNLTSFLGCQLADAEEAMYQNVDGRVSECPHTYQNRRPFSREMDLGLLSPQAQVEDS
Kind of experiment: FLT3-D835Y recombinant enzyme kinase assay (AlphaScreen). The experiment is classed as biochemical. The settings on record: 8 pt, GMean. The method, then: as §1, §2, §3, §4, §5, §6, §7, §8, §9, §10, §11, §12, §13, §14, §15, §16, §17, §18, §19, §20

Structures are written as SMILES.

For `Cn1cc(Nc2ncc(-c3ccc(CC(=O)Nc4cnc(F)c(C(C)(F)F)c4)cc3)cn2)cn1` [Compound P-0104, N-[5-(1,1-difluoroethyl)-6-fluoro-3-pyridyl]-2-[4-[2-[(1-methylpyrazol-4-yl)amino]pyrimidin-5-yl]phenyl]acetamide], the IC50 at FLT3-ITD and at FLT3-D835Y was 0.0001 to 10 µM in each case.

Turning to `Cn1cc(Nc2ncc(-c3ccc(CC(=O)Nc4cnnc(Cl)c4)cc3)cn2)cn1` [Compound P-0151, N-(6-chloropyridazin-4-yl)-2-[4-[2-[(1-methylpyrazol-4-yl)amino]pyrimidin-5-yl]phenyl]acetamide], the half-inhibitory concentration (IC50) on FLT3-ITD and at FLT3-D835Y was 0.0001 to 10 µM each time.

For `Cn1cc(Nc2ncc(-c3ccc(CC(=O)Nc4ccc(C(C)(C)C)nc4)cc3)cn2)cn1` [Compound P-0143, N-(6-tert-butyl-3-pyridyl)-2-[4-[2-[(1-methylpyrazol-4-yl)amino]pyrimidin-5-yl]phenyl]acetamide], the IC50 on FLT3-ITD and on FLT3-D835Y was 0.0001 to 10 µM throughout.

`Cn1cnc(Nc2ncc(-c3ccc(CC(=O)Nc4cncc(C(C)(F)F)c4)c(F)c3)cn2)c1` [Compound P-0103, N-[5-(1,1-difluoroethyl)-3-pyridyl]-2-[2-fluoro-4-[2-[(1-methylimidazol-4-yl)amino]pyrimidin-5-yl]phenyl]acetamide]: the IC50 on FLT3-ITD and on FLT3-D835Y was 0.0001 to 10 µM throughout.

For `Cn1cnc(Nc2ncc(-c3ccc(CC(=O)Nc4cc(C(F)(F)F)ccn4)c(F)c3)cn2)c1` [Compound P-0096, 2-[2-fluoro-4-[2-[(1-methylimidazol-4-yl)amino]pyrimidin-5-yl]phenyl]-N-[4-(trifluoromethyl)-2-pyridyl]acetamide], the IC50 on FLT3-ITD and at FLT3-D835Y was 0.0001 to 10 µM throughout.

As for `Cn1cc(Nc2ncc(-c3ccc(CC(=O)Nc4ccnc(C5CC5)c4)c(F)c3)cn2)cn1` [Compound P-0098, N-(2-cyclopropyl-4-pyridyl)-2-[2-fluoro-4-[2-[(1-methylpyrazol-4-yl)amino]pyrimidin-5-yl]phenyl]acetamide], the IC50 on FLT3-ITD and on FLT3-D835Y was 0.0001 to 10 µM each time.

Regarding `Cn1cc(Nc2ncc(-c3ccc(CC(=O)Nc4ccnc(C(F)(F)F)n4)cc3)cn2)cn1` [Compound P-0137, 2-[4-[2-[(1-methylpyrazol-4-yl)amino]pyrimidin-5-yl]phenyl]-N-[2-(trifluoromethyl)pyrimidin-4-yl]acetamide], the half-maximal inhibitory concentration (IC50) at FLT3-ITD and at FLT3-D835Y was 0.0001 to 10 µM throughout.

Take `N#Cc1cc(-c2cc3cc(-c4ccc(CC(=O)Nc5cc(C(F)(F)F)ccn5)cc4F)cnc3[nH]2)ccn1` [Compound P-0194, 2-[4-[2-(2-cyano-4-pyridyl)-1H-pyrrolo[2,3-b]pyridin-5-yl]-3-fluoro-phenyl]-N-[4-(trifluoromethyl)-2-pyridyl]acetamide]: the IC50 at FLT3-ITD and at FLT3-D835Y was 0.0001 to 10 µM each time.

With `Cn1cc(Nc2ncc(-c3ccc(CC(=O)Nc4ccc(S(C)(=O)=O)cc4)cc3)cn2)cn1` [Compound P-0156, 2-[4-[2-[(1-methylpyrazol-4-yl)amino]pyrimidin-5-yl]phenyl]-N-(4-methylsulfonylphenyl)acetamide], the concentration for half-maximal inhibition (IC50) on FLT3-ITD and on FLT3-D835Y was 0.0001 to 10 µM each time.

Turning to `Cn1cc(Nc2ncc(-c3ccc(CC(=O)NCc4ncccc4C(F)(F)F)cc3)cn2)cn1` [Compound P-0159, 2-[4-[2-[(1-methylpyrazol-4-yl)amino]pyrimidin-5-yl]phenyl]-N-[[3-(trifluoromethyl)-2-pyridyl]methyl]acetamide], the half-inhibitory concentration (IC50) – broadly, the midpoint of a concentration-inhibition curve – at FLT3-ITD lay within 0.0001 to 10 µM.

For the compound `COc1ccc(-c2cc3cc(-c4ccc(CC(=O)Nc5cc(C(F)(F)F)ccn5)cc4F)cnc3[nH]2)cn1` [Compound P-0191, 2-[3-fluoro-4-[2-(6-methoxy-3-pyridyl)-1H-pyrrolo[2,3-b]pyridin-5-yl]phenyl]-N-[4-(trifluoromethyl)-2-pyridyl]acetamide], at FLT3-ITD, the IC50 is 0.0001 to 10 µM.

In the case of `N#Cc1cc(-c2cc3cc(-c4ccc(CC(=O)Nc5cncc(C(F)(F)F)c5)cc4F)cnc3[nH]2)ccn1` [Compound P-0199, 2-[4-[2-(2-cyano-4-pyridyl)-1H-pyrrolo[2,3-b]pyridin-5-yl]-3-fluoro-phenyl]-N-[5-(trifluoromethyl)-3-pyridyl]acetamide], the IC50 on FLT3-ITD was 0.0001 to 10 µM.

On to `COc1ccccc1CNC(=O)Cc1ccc(-c2cnc(Nc3cnn(C)c3)nc2)cc1` [Compound P-0160, N-[(2-methoxyphenyl)methyl]-2-[4-[2-[(1-methylpyrazol-4-yl)amino]pyrimidin-5-yl]phenyl]acetamide], for which the concentration for half-maximal inhibition (IC50) on FLT3-ITD lay in the range of 0.0001 to 10 µM.

Take `COc1cc(NC(=O)Cc2ccc(-c3cnc(Nc4cnn(C)c4)nc3)cc2)ccn1` [Compound P-0153, N-(2-methoxy-4-pyridyl)-2-[4-[2-[(1-methylpyrazol-4-yl)amino]pyrimidin-5-yl]phenyl]acetamide]: on FLT3-ITD, the IC50 lay within 0.0001 to 10 µM.

As to `Cn1cc(Nc2ncc(-c3ccc(CC(=O)NCc4cccnc4)cc3)cn2)cn1` [Compound P-0132, 2-[4-[2-[(1-methylpyrazol-4-yl)amino]pyrimidin-5-yl]phenyl]-N-(3-pyridylmethyl)acetamide], the concentration for half-maximal inhibition (IC50) on FLT3-ITD fell in the range of 0.0001 to 10 µM.

`Cc1cc(-c2cnc3[nH]c(-c4ccccc4)cc3c2)ccc1CC(=O)Nc1cccc(C(F)(F)F)c1` [Compound P-0001, 2-[2-methyl-4-(2-phenyl-1H-pyrrolo[2,3-b]pyridin-5-yl)phenyl]-N-[3-(trifluoromethyl)phenyl]acetamide]: the IC50 at FLT3-ITD was in the range of 0.0001 to 10 µM.

The values are drawn from US10160747B2, “Compounds and methods for kinase modulation, and indications therefor” (Plexxikon Inc., priority 2016, dated 2018).
